Results as given in publication PMC7927096, “Dipeptides of S-Substituted Dehydrocysteine as Artzyme Building Blocks: Synthesis, Complexing Abilities and Antiproliferative Properties” (International Journal of Molecular Sciences, 2021).
Where a name gives a salt, the structure may show the parent alone.

How the values were obtained:
[1] = Potentiometric titration, protonation constants of free ligands; type: physicochemical; conditions: 298 K, ionic strength 0.1 M KCl; for protonation constant logβ, H2L / protonation constant logβ, H3L / protonation constant logβ, HL: ± SD
Procedure: (§1) The pH-metric measurements were performed on Metrohm 905 Titrando system equipped with combined Biotrop® electrode. The titrant was 0.1 M KOH (Merck, Germany) freed of CO2 by bubbling Ar gas for 3 h. The electrode calibration was performed before each titration. The volume of all the samples was 1.5 mL and the measurements were carried out at a range of pH of 2.5–11.0 in thermostated vessels at 298 K in an inert atmosphere of Ar gas. The ligands 9a and 10a were diluted in hydrochloric acid (pH = 2.5), prepared from 37% HCl (Sigma-Aldrich, Poland). Their concentration was set up at a range of 1.0–2.0 × 10^−3 M and the ionic strength of 0.1 M was achieved by the addition of KCl (Sigma-Aldrich, Poland). The ligand-metal ion systems were prepared by addition of CuCl2 (Sigma-Aldrich, Poland). stock solutions to reach final ligand to metal ratio (nL: nCu^2+) being 2:1 or 1:1.
(§2) The protonation (βi = [HiL]/[H^+]^i[L]), stability constants (βpqr = [MpHqLr]/[M]^p[H]^q[L]^r), and stoichiometry of complexes were calculated using the HYPERQUAD program. The distribution species plots were made by HySS program. The standard deviations were computed for all the constants and indicated the presence of only random errors, which was a good evidence of the presence of each species in the equilibrium.

[2] = Potentiometric titration and spectroscopy, stability constants of Cu(II)-complexes; type: physicochemical; conditions: for Cu(II) complexing ability (in words): 10a versus 9a below pH 5, 9a versus Gly(Z)Phe, nL:nCu(II) = 1:1
Procedure: as §1, §2
The UV-Vis absorption measurements were recorded on Varian Carry 50 Bio spectrophotometer. All spectra were collected in a quartz cuvette with 1 cm path length at 298 K. The spectral range was 300–800 nm with resolution 0.1 nm. The molar extinction coefficients (ε [M^−1cm^−1]) were calculated for each spectrum at a wavelength of maximum absorption.
The Circular Dichroism spectra (CD) and Magnetic Circular Dichroism (MCD) were measured on a JASCO J 600 spectropolarimeter in a range of 230–800 nm with 0.1 nm resolution. The optical length of the quartz cuvettes was 10 mm. The molar circular dichroism coefficient (Δε [M^−1cm^−1]) was calculated for each spectrum.
The Electron Paramagnetic Resonance (EPR) spectra were recorded on a Brucker ESP 300E spectrometer at X-band frequency (9.5 GHz) at 77 K obtained by the use of liquid nitrogen. The procedure of sample preparation for spectroscopic measurements was the same as in potentiometric titration. The EPR samples were protected by adding 30% of ethylene glycol (Sigma-Aldrich, Poland). The pH of the samples was determined by adding a small quantity of a concentrated solution of KOH (Merck, Germany) to achieve the desired value and controlled by Mettler Toledo pH-meter equipped with combined electrode InLab®Micro. The simulation of the EPR spectrum was performed by the Hyperfine Spectrum program written by W.R. Hagen.

[3] = test system: ten diverse human cancer cells lines and murine non-tumorigenic cell line (Balb/3T3); test: Antiproliferative screen, whole cell line panel (statements in words); type: cell-based; conditions: SRB, across cell lines
Text: (§3) Ten different human cancer cell lines (including drug-resistant sublines) and one non-tumorigenic murine fibroblasts cell line were used to determine antiproliferative activity of the tested compounds. The MDA-MB-231 (breast adenocarcinoma), UM-UC-3 (urinary bladder transitional cell carcinoma), LoVo (colorectal adenocarcinoma), LoVo^Dx (colorectal adenocarcinoma, doxorubicin-resistant) and Balb/3T3 (non-tumorigenic murine fibroblasts) were purchased from the American Type Culture Collection (ATCC; Rockville, USA). The MCF-7 (breast adenocarcinoma) and A549 (lung carcinoma) were purchased from European Collection of Authenticated Cell Cultures (ECACC; Porton Down, UK). The UM-UC-3^CDDP, UM-UC-3^GEM, UM-UC-3^VBL, and UM-UC-3^CDDP/GEM cell lines were established at Hirszfeld Institute of Immunology and Experimental Therapy of the Polish Academy of Sciences (HIIET, PAS, Wroclaw, Poland) by the continuous exposure to the increasing concentrations of corresponding cytostatics.
(§4) The Balb/3T3 and UM-UC-3 were cultured in Dulbecco’s Modified Eagle Medium (DMEM; Life Technologies, UK) supplemented with 10% (v/v) fetal bovine serum (FBS; GE Healthcare HyClone, Logan, USA) and 2 mM L-glutamine (Sigma-Aldrich, Poznań, Poland). The UM-UC-3^CDDP, UM-UC-3^GEM, UM-UC-^3VBL, and UM-UC-3^CDDP/GEM culture media were additionally supplemented with appropriate cytostatics: 2.5 µg/mL cisplatin (Accord, Warsaw, Poland) for UM-UC-3^CDDP, 500 nM gemcitabine (Sigma-Aldrich, Poznań, Poland) for UM-UC-3^GEM, 5 nM vinblastine (Sigma-Aldrich, Poznań, Poland) for UM-UC-3VBL, 2.5 µg/mL cisplatin and 500 nM gemcitabine for UM-UC-3^CDDP/GEM. The LoVo cell line was cultured in F-12K Nutrient Mixture (F-12K; Corning, Corning, USA), supplemented with 10% (v/v) FBS. LoVo^Dx culture medium was additionally supplemented with doxorubicin 100 ng/mL (Accord, Warsaw, Poland). The MCF-7 cell line was cultured in Eagle’s medium (HIIET, PAS, Wroclaw, Poland), supplemented with 10% (v/v) FBS (Sigma-Aldrich, Poznań, Poland), 2 mM L-glutamine, MEM non-essential amino acid solution 1% (v/v) (Sigma-Aldrich, Poznań, Poland), insulin 8 µg/mL (Sigma-Aldrich, Poznań, Poland). The MDA-MB-231 cell line was cultured in RPMI 1640 (HIIET, PAS, Wroclaw, Poland), supplemented with 10% (v/v) FBS (Sigma-Aldrich, Poznań, Poland) and 2 mM L-glutamine. The A 549 cell line was cultured in OptiMEM (HIIET, PAS, Wroclaw, Poland), supplemented with 5% (v/v) FBS (GE Healthcare HyClone, Logan, USA) and 2 mM L-glutamine. All culture media were supplemented with antibiotics—100 μg/mL streptomycin (Polfa Tarchomin, Warsaw, Poland) and 100 U/mL penicillin (Sigma-Aldrich, Poznań, Poland).
(§5) All cell lines were cultured in a humidified atmosphere at 37 °C with 5% (v/v) CO2 and passaged twice a week using EDTA-Trypsin solution (pH 8; HIIET, Wroclaw, Poland) as a detachment agent.
(§6) All compounds, for antiproliferative activity assessment, were stored at […] as 50 mM solutions in dimethyl sulfoxide (DMSO; Avantor Performance Materials, Gliwice, Poland).
(§7) The cells were seeded on 384-well plates (Greiner Bio One, Kremsmünster, Austria) at 1 × 10^3 cells/well density for A 549, UM-UC-3, UM-UC-3^CDDP, UM-UC-3^GEM, UM-UC-3^CVBL and UM-UC-3^CDDP/GEM cell lines. Other cell lines were seeded at 2 × 10^3 cells/well. After overnight incubation, compounds were applied at eight concentrations (ranging from 100 µM to 0.03 µM). After 72 h incubation, the sulforhodamine B (SRB) assay based on Skehan et al. was carried out with slight modifications. In brief, 50 µL of the medium was replaced with 30 µL/well of 25% (w/v) trichloroacetic acid (Avantor Performance Materials, Gliwice, Poland). After 1 h incubation at room temperature, plates were washed three times with tap water, and 20 µL of 0.1% (w/v) solution of sulforhodamine B (Sigma-Aldrich, Poznan, Poland) in 1% (v/v) acetic acid (Avantor Performance Materials, Gliwice, Poland) was added to each well. […]

[4] = test system: MCF-7 (breast adenocarcinoma); test: Antiproliferative activity, sulforhodamine B assay; type: cell-based, human; conditions: Homo sapiens, MCF7; SRB, 72 h incubation; read-out: IC50 ± SD, MCF-7
Text: as §3, §4, §5, §6, §7

A549 (lung carcinoma) = test: Antiproliferative activity, sulforhodamine B assay; type: cell-based, human; conditions: Homo sapiens, A549; SRB, 72 h incubation; read-out: IC50 ± SD, A-549
Text: as §3, §4, §5, §6, §7

[5] = test system: MDA-MB-231 (breast adenocarcinoma); test: Antiproliferative activity, sulforhodamine B assay; type: cell-based, human; conditions: Homo sapiens, MDA-MB-231; SRB, 72 h incubation; read-out: IC50 ± SD, MDA-MB-231
Text: as §3, §4, §5, §6, §7

[6] = test system: LoVo^DX (colorectal adenocarcinoma, doxorubicin-resistant); test: Antiproliferative activity, sulforhodamine B assay; type: cell-based, human; conditions: Homo sapiens, LoVo/DX, SRB, 72 h incubation, read-out: IC50 ± SD, LoVo^DX
Text: as §3, §4, §5, §6, §7

[7] = test system: LoVo (colorectal adenocarcinoma); test: Antiproliferative activity, sulforhodamine B assay; type: cell-based, human; conditions: Homo sapiens, LoVo; SRB, 72 h incubation; read-out: IC50 ± SD, LoVo
Text: as §3, §4, §5, §6, §7

[8] = test system: Balb/3T3 (non-tumorigenic murine fibroblasts); test: Antiproliferative activity, sulforhodamine B assay; type: cell-based; conditions: Mus musculus, BALB/3T3; SRB, 72 h incubation; non-tumorigenic line; read-out: IC50 ± SD, Balb/3T3
Text: as §3, §4, §5, §6, §7

[9] = 298 K, ionic strength 0.1 M KCl
[10] = 298 K, ionic strength 0.1 M KCl, ± SD

protonation constant logK, H3L [1] | protonation constant logK, HL [1] | protonation constant logβ, H2L [1] | protonation constant logβ, H3L [1] | protonation constant logβ, HL [1] | logK, Cu2L2H [2, 9] | logK, CuL [2, 9] | logK, CuL2H [2, 9] | logK, CuLH2 [2, 9] | stability constant logβ, Cu2L2H [2, 10] | stability constant logβ, Cu2L2H-1 [2, 10] | stability constant logβ, CuL [2, 10] | stability constant logβ, CuL2 [2, 10] | stability constant logβ, CuL2H [2, 10] | stability constant logβ, CuLH2 [2, 10] | stability constant logβ, CuLH-1 [2, 10] | IC50 [4] [µM] | IC50 (A549 (lung carcinoma)) [µM] | Compound | Cu(II) complexing ability (in words) [2] | antiproliferative activity (in words) [3] | also measured
7.26 | 10.09 | 18.05 ± 0.01 | 25.31 ± 0.01 | 10.09 ± 0.01 | 14.45 | 10.42 | 8.73 | 9.34 | 36.61 ± 0.03 | 22.16 ± 0.06 | 14.18 ± 0.01 | 20.06 ± 0.04 | 28.79 ± 0.04 | 23.52 ± 0.03 | 3.76 ± 0.04 | – | – | COC(=O)/C(=C/Sc1nc[nH]n1)NC(=O)CN [Compound 9a, HCl Gly-ΔCys(S-triazole)-OMe] | significantly more effective in Cu(II) coordination | – | logK, CuL2 [2, 9]: 11.35; logK, CuL2H2 [2, 9]: 7.67; stability constant logβ, CuL2H2 [2, 10]: 36.46 ± 0.04; stability constant logβ, CuL2H-1 [2, 10]: 8.71 ± 0.07; corrected stability constant (logβ = logβCuLH2 − logβH2L) ([2]; CuH2L complex, equimolar conditions): 5.47; logβ* = logβCuL − logKHL ([2]; CuL species, independent of logKtriazole): 4.09
– | – | – | – | – | – | – | – | – | – | – | – | – | – | – | – | > 100 | 33.4 ± 6.4 | COC(=O)/C(=C/Sc1nc2ccccc2s1)NC(=O)CN [Compound 9d, HCl Gly-ΔCys(S-benzothiazole)-OMe] | – | – | IC50 [5]: 56 ± 7.1 µM
6.85 | 10.42 | 18.53 ± 0.02 | 25.38 ± 0.02 | 10.42 ± 0.01 | 14.59 | 10.61 | 8.45 | 8.83 | 37.54 ± 0.06 | 22.95 ± 0.06 | 15.00 ± 0.01 | 20.37 ± 0.05 | 28.82 ± 0.11 | 23.83 ± 0.03 | 4.39 ± 0.03 | – | – | COC(=O)/C(=C/Sc1nc[nH]n1)NC(=O)[C@@H](N)Cc1ccccc1 [Compound 10a, HCl Phe-ΔCys(S-triazole)-OMe] | significantly more effective binder of Cu(II) | – | –
– | – | – | – | – | – | – | – | – | – | – | – | – | – | – | – | 101 ± 11.3 | > 100 | COC(=O)/C(=C/Sc1nc2c(N)ncnc2[nH]1)NC(=O)[C@H](Cc1ccccc1)NC(=O)OC(C)(C)C [Compound 7e, Boc-Phe-ΔCys(S-adenine)-OMe] | – | markedly lower, if any, activity | IC50 [5]: 74.5 ± 7.7 µM; IC50 [6]: > 100 µM; IC50 [7]: 81.7 ± 12.4 µM; IC50 [8]: > 100 µM

More lines, now with the values behind:

Compound | protonation constant logK, H3L [1] | protonation constant logK, HL [1] | protonation constant logβ, H2L [1] | protonation constant logβ, H3L [1] | protonation constant logβ, HL [1] | logK, Cu2L2H [2, 9] | logK, CuL [2, 9] | logK, CuL2H [2, 9] | logK, CuLH2 [2, 9] | stability constant logβ, Cu2L2H [2, 10] | stability constant logβ, Cu2L2H-1 [2, 10] | stability constant logβ, CuL [2, 10] | stability constant logβ, CuL2 [2, 10] | stability constant logβ, CuL2H [2, 10] | stability constant logβ, CuLH2 [2, 10] | stability constant logβ, CuLH-1 [2, 10] | IC50 [4] [µM] | IC50 (A549 (lung carcinoma)) [µM] | Cu(II) complexing ability (in words) [2] | antiproliferative activity (in words) [3] | also measured
COC(=O)/C(=C/Sc1nc[nH]n1)NC(=O)CNC(=O)OC(C)(C)C [Compound 6a, Boc-Gly-ΔCys(S-triazole)-OMe] | – | – | – | – | – | – | – | – | – | – | – | – | – | – | – | – | – | – | – | markedly lower, if any, activity | –
COC(=O)/C(=C/Sc1nc2c(N)ncnc2[nH]1)NC(=O)CNC(=O)OC(C)(C)C [Compound 6e, Boc-Gly-ΔCys(S-adenine)-OMe] | – | – | – | – | – | – | – | – | – | – | – | – | – | – | – | – | – | – | – | markedly lower, if any, activity | –
